Measurements taken from ChEMBL document CHEMBL5143564, “PES derivative PESA is a potent tool to globally profile cellular targets of PES” (Bioorg Med Chem Lett, 2022).
Active and inactive are the calls of the source. The rule behind the calls is not given here.

Columns and labels:
[1] = molecular target: Elongation factor 2 (Homo sapiens) (UniProt P13639); assay: Binding affinity to elongation factor 2 in human MDA-MB-453 cells measured after 6 hrs by pull-down assay; format: cell-based; conditions: dose <= 20.0 µM, DDE = dose-dependent effect
Homo sapiens = species on record: Homo sapiens; assay: Binding affinity to ADP-bound full-length human HSP70 assessed as Cys603 adduct formation by size exclusion chromatography
HepG2 = assay: Cytotoxicity against human HepG2 cells measured after 72 hrs; format: functional, cell-based
DOHH-2 [2] = assay: Induction of autophagy in human DOHH-2 cells assessed as reduction in p62 expression at 8 uM measured after 4 to 24 hrs by Western blot analysis; format: functional, cell-based; conditions: time 4-24 hrs
DOHH-2 [3] = assay: Induction of autophagy in human DOHH-2 cells assessed as change in transformation of LC3B1 to LC3B2 expression at 0.5 to 8 uM measured after 24 hrs by Western blot analysis; format: functional, cell-based; conditions: dose 0.5-8 µM
DOHH-2 [4] = assay: Up regulation of HSP70 expression in human DOHH-2 cells at 8 uM measured after 4 to 24 hrs by Western blot analysis; format: functional, cell-based; conditions: time 4-24 hrs
[5] = molecular target: T1, Thioredoxin-dependent peroxide reductase, mitochondrial (Homo sapiens) (UniProt P30048); assay: Binding affinity to PRDX3 in human MDA-MB-453 cells measured after 6 hrs by pull-down assay; format: cell-based; conditions: dose <= 20.0 µM, DDE = dose-dependent effect
T1 sequence (whole entry): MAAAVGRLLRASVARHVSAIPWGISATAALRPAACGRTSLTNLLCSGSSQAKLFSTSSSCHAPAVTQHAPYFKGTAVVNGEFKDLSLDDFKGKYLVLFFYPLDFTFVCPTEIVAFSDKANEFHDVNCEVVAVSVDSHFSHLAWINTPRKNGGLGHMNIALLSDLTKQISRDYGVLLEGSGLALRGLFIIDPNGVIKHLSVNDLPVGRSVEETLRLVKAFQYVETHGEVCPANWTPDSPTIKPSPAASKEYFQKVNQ

[6] = molecular target: T2, Peroxiredoxin-5, mitochondrial (Homo sapiens) (UniProt P30044); assay: Binding affinity to PRDX5 in human MDA-MB-453 cells measured after 6 hrs by pull-down assay; format: cell-based; conditions: dose <= 20.0 µM, DDE = dose-dependent effect
T2 sequence (whole entry): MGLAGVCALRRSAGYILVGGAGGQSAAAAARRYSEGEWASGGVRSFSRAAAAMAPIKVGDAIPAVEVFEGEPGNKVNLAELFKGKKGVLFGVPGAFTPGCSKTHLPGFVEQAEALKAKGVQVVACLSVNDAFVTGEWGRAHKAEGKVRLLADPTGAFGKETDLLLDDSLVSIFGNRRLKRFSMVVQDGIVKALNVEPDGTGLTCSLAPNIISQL

[7] = molecular target: T3, Protein disulfide-isomerase A3 (Homo sapiens) (UniProt P30101); assay: Binding affinity to PDIA3 in human MDA-MB-453 cells measured after 6 hrs by pull-down assay; format: cell-based; conditions: dose <= 20.0 µM, DDE = dose-dependent effect
T3 sequence (whole entry): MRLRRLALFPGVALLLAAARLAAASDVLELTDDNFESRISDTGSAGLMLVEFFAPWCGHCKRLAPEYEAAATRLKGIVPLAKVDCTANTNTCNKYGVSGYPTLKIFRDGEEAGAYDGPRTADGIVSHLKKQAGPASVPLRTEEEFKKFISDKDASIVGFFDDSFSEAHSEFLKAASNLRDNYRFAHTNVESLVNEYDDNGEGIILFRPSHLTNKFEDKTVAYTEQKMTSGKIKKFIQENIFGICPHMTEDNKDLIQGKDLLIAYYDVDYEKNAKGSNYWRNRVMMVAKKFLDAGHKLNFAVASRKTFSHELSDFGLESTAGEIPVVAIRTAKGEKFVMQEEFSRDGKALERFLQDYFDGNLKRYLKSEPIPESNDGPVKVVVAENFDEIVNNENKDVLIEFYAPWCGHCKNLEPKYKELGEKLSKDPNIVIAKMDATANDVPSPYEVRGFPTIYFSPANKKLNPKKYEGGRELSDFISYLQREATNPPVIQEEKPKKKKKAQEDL

[8] = molecular target: Tubulin beta (Homo sapiens) (UniProt P68371+Q9H4B7+Q13509+P04350+Q3ZCM7+P07437+Q13885+Q9BVA1+Q9BUF5+A6NNZ2); assay: Binding affinity to beta-tubulin in human DOHH-2 cells by MS analysis; format: cell-based
[9] = molecular target: T4, D-3-phosphoglycerate dehydrogenase (Homo sapiens) (UniProt O43175); assay: Binding affinity to D-3-phosphoglycerate dehydrogenase in human DOHH-2 cells by MS analysis; format: cell-based
T4 sequence (whole entry): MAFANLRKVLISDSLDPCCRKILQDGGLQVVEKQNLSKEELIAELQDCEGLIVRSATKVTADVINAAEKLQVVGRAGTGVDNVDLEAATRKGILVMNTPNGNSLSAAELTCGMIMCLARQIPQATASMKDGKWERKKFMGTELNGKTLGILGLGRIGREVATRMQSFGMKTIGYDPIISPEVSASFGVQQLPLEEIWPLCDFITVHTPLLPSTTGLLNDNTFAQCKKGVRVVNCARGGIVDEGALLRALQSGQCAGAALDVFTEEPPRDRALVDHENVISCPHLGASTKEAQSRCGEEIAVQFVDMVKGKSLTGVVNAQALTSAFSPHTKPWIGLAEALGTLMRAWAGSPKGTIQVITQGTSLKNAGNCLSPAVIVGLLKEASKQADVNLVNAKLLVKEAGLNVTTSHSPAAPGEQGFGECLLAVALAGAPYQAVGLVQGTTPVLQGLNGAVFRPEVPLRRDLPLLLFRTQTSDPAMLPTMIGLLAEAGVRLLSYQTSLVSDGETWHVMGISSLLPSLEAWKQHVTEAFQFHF

[10] = molecular target: T5, Peroxiredoxin-2 (Homo sapiens) (UniProt P32119); assay: Binding affinity to PRDX2 in human DOHH-2 cells by MS analysis; format: cell-based
T5 sequence (whole entry): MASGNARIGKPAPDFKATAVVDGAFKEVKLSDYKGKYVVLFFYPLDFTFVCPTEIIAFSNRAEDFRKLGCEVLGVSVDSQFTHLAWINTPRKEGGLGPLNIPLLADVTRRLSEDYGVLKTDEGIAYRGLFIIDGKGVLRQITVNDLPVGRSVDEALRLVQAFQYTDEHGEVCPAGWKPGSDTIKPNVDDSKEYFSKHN

Activity [1]: Dde
Activity (Homo sapiens): Active
Activity [5]: Dde
Activity [6]: Dde
Activity [7]: Dde
Activity [8]: Active
Activity [9]: Active
Activity [10]: Active
SMILES: C#Cc1cccc(C#CS(N)(=O)=O)c1
Activity (HepG2): Active
Activity (DOHH-2 [2]): Active
Activity (DOHH-2 [3]): Active
Activity (DOHH-2 [4]): Active
